In patent US10588972B2, “Phthalocyanine probes and uses thereof” (LI-COR, INC., priority 2014, dated 2020):
“And” between values parts separate entries of the source, which are not always exact repeats. Identical values can stand only once. Like-named read-outs stand apart in the source and are kept apart here.

Legend:
[1] = tested on: A431 cells; format: cell-based; settings: 32 J/cm^2
Protocol: A different LED source was tested and evaluated to determine if a second source of LED would yield a similar effect as the standard LED used. A straight forward evaluation was set up with four treatments (treatments A-D). The tests were performed in triplicate in order to examine reproducibility. The test included the following four treatments: treatment A of no probe and irradiation, treatment B of IRdye® 700DX-labeled EGF and no irradiation, treatment C of IRDye® 700DX-labeled EGF and irradiation, and treatment D of IRDye® 700DX-labeled panitumumab and irradiation. The probe dose was about 0.1 μM labeled panitumumab and 0.5 μM 700DX-labeled EGF. Irradiation was for 10 minutes at an irradiation dose of 32 J/cm^2.
Significant and similar effects for both probes together and in triplicate thus providing clear evidence that IRDye® 700DX-labeled small protein can kill cells similarly to an IRDye 700DX-labeled antibody. Conditions for use of either probe may be unique to the individual probe. […] The fluorescent scale of the 700 nm images was the same for both treated sets of cells (FIGS. 12C-12D). Although the exact concentration of the antibody probe is not known, the signals from the different probes appear similar in level and intensity.

[2] = tested on: A431 cells; test: VB-48 assay: vitality, viability and necrosis of treatments 1-10 (Table 3); format: cell-based
Protocol: Briefly, A431 cells were labeled with respective probes for specific treatments (listed below); cells were rinsed and evaluated for labeling. The test include the following treatments: […], treatments 3-4 of EGF-IRDye® 700DX at 0.5 μM and radiation, treatments 5-6 of IRDye® 700DX NHSe at 5 μM and radiation, treatments 7-8 of panitumumab-IRDye® 700DX at about 0.1 μM and radiation, treatment 9 of a negative control with no probe and no irradiation, and treatment 10 of RGD-IRDye® 700DX and no irradiation. The probes were incubated for about 10 minutes and with a longer period of about 20 minutes for the RGD probe. The cells were monitored with microscopy and morphology was examination 24 hours post treatment.
Low binding was expected for the RGD probe due to the low level of integrin receptors on A431 cells. […] By 3 hours post-irradiation all treatments except RGD (Treatment 1) show significant cytotoxicity. Vitality, viability and necrosis assays such as a VB-48 assay and JC-1 assay were performed.

[3] = tested on: A431 cells; test: Cytotoxicity and localization of antibody probe versus small protein ligand probe after irradiation (Example 4); format: cell-based
Protocol: Both probes can bind EGFR and had approximately 2 dye molecule per conjugate molecule. It was assumed that the affinity for the receptor will be different for the antibody (generally pM), compared to the small protein (nM). Although the probe doses were different, the incubation times were the same at only 10 min. After incubation, the probes were rinsed from the cells. FIGS. 7A and 7B illustrates A431 cells that were incubated with IRDye 700DX-panitumumab or IRDye 700DX-EGF, respectively and thereafter irradiated.
Thus, upon irradiation, the production of singlet oxygen occurred at the cell surface. Typically, the EGF ligand is internalized after binding the EGF receptor.

[4] = tested on: A431 cells; test: Unlabeled versus IRDye 700DX-labeled panitumumab with and without irradiation (Example 5); format: cell-based; settings: 10 minutes incubation
Protocol: Although the assumption is that the doses used in the assay described herein are too low to be a contributing factor in the cell death seen with IRDye® 700DX-labeled panitumumab, a small study was conducted to confirm that no therapeutic effect is due to the assay system. The test included the following four treatments: treatment 1 of unlabeled panitumumab and no irradiation (FIG. 11A), treatment 2 of IRDye® 700DX-labeled panitumumab and no irradiation (FIG. 11B), treatment 3 of unlabeled panitumumab and irradiation (FIG. 11C), and treatment 4 of IRDye® 700DX-labeled panitumumab and irradiation (FIG. 11D). The irradiation dose was 24 J/cm^2 with the probe incubation of 10 minutes and a concentration of 0.1 μM.

[5] = Production of singlet oxygen, Singlet Oxygen Green Sensor, steady state fluorometer; settings: for singlet oxygen sensor fluorescence with scavenger sodium azide added: 32 J/cm^2
Protocol: Dyes and conjugated probes (IRDye 700DX carboxylate (700DX), EGF, RGD, and IgG conjugates) were evaluated for production of singlet oxygen using Singlet Oxygen Green Sensor (Life Technologies) and measured by a steady state fluorometer (ex 504 nm/em 525 nm). Controls (water or DMEM medium) and a positive control of methylene blue (MB) were included.
Measurements were made every second for 30 sec and averaged. Solution makeup: SOGS (1 μM), dye or probe addition (10 μM), Tris pH 7.5 ([…]) and deuterium oxide (50%). Light exposure=32 J/cm^2.

[6] = tested on: serum proteins including albumin (human serum albumin, bovine serum albumin, 5% FBS); test: Binding of dye to serum proteins, incubation in 1×PBS and 4-12% Bis-Tris gel
Protocol: In SDS-PAGE and under non-reducing conditions, ovalbumin has a molecular weight of about 40 kDa, 45 kDa, 63 kDa and 72 kDa. Human serum albumin (HSA) has a molecular with ranging from about 66.6 kDa to about 66.4 kDa or lower under non-reducing conditions. HSA can migrate as an approximately 58-67 kDa band in SDS-PAGE under reducing conditions.
Human serum albumin, bovine serum albumin, 5% FBS and IRDye® 700DX carboxylate were incubated in 1×PBS for 2.5 h at room temperature. Methylene blue was also used as a dye known to bind to albumin and the other serum proteins. The samples were run on a 4-12% Bis-Tris gel. Ovalbumin served as the negative control. The proteins incubated with IRDye® 700DX carboxylate are on the left of the gel and methylene blue samples are on the right (FIG. 4A-B).

[7] = Stability of IRDye 700DX carboxylate (signal intensity) in PBS and in buffers of pH 2.1-8.2; format: physicochemical; settings: 37° C.
Protocol: Evaluation of the effect of pH on the stability of the carboxylate form of the dye was performed at room temperature and at 37° C. For comparison purposes a test of the stability at 37° C. while dissolved in 1×PBS was included. Mcllaine's buffer solution with constant ionic strength was used. […] When the dye was dissolved in various buffers with increasing pH (2.1-8.2) a loss in signal intensity initially occurred between pH 4 and 5 with losses progressively increasing down to pH 2.1 at room temperature (FIG. 3A). At 37° C. this loss initially occurred at a slightly higher pH between pH 5-6 with a progression similar to the tests done at room temperature (FIG. 3B).

[8] = Clearance and biodistribution of IRDye 700DX carboxylate by fluorescence imaging; format: in vivo, nude mice
Protocol: Experiments were performed to evaluate the clearance of IRDye® 700DX carboxylate in nude mice receiving 2 or 4 nmoles of the compound. This is the non-reactive form of the dye and the in vivo elimination kinetics can be used to determine the biodistribution of the dye and a subsequent dye-labeled conjugate. The results for both doses were very similar (only 4 nmole animal images are presented). Clearance appeared to be renal as noted in the dorsal (FIG. 8A) and ventral whole body views (FIG. 9A). The kidneys are visible throughout the dorsal series (FIG. 8A) and liver negligible in ventral series (FIG. 9A). […] A closer examination of the organs after excision is illustrated in FIG. 10B (2 nmole dose). […] All organs imaged (muscle, heart, lungs, liver, brain, spleen, intestine, and kidneys) were analyzed for signal corrected for area.

[9] = irradiated (I) 10 minutes, 700DX-EGF 0.5 μM, 700DX-Pan about 0.1 μM
[10] = irradiated (I) 32 J/cm^2, RGD 0.5 μM, EGF 0.5 μM, NHSe 5 μM, Pan ~0.1 μM
[11] = irradiation 24 J/cm^2, 0.1 μM, 24 hours post-treatment
[12] = no irradiation, 0.1 μM, 24 hours
[13] = 2.5 h incubation, room temperature

700DX-Pan [reference compound]
effect on cells (morphology) ([1]; irradiated 10 minutes): severely affected by the irradiating energy and were dying | Cells/mL [1, 9]: 2.8 × 10^5 Cells/mL and 4.2 × 10^5 Cells/mL and 2.3 × 10^5 Cells/mL | VB-48 % necrotic [1, 9]: 67% and 87% | % Healthy [2, 10]: 15.0% | % Necrotic [2, 10]: 70% | Cells/mL [2, 10]: 1.2 × 10^5 Cells/mL | Est % Viability [2, 10]: 30-40% | Low % Vitality [2, 10]: 15% | cytotoxicity by microscopy ([2]; irradiated, up to 3 hours post-irradiation): most effective | dead irradiated cells ([3]; 10 min incubation, panitumumab probe about 0.1 μM, EGF probe 0.5 μM, 24 hours post irradiation): 62% | necrotic cells after irradiation ([3]; irradiation 24 J/cm^2 (figure legend)): 62% | induction of cell death (morphology) [4, 11]: effectively induced cell death | induction of cell death (morphology) [4, 12]: No measurable effect

CN(C)c1ccc2nc3ccc(=[N+](C)C)cc-3sc2c1 [methylene blue]
increase of singlet oxygen sensor fluorescence ([5]; dye or probe 10 μM, SOGS 1 μM, light exposure 32 J/cm^2 (690 nm)): Three- to four-fold | singlet oxygen sensor fluorescence with scavenger sodium azide added [5]: reduction in fluorescence | binding to the serum proteins including albumin [6, 13]: Signal is present

silicate(5-), bis[N— [3-[(hydroxy-.kappa.O)dimethylsilyl]propyl]-3-sulfo-N,N-bis(3-sulfopropyl)-1-propanaminiumato(4-)][6-[[[3-[(29H,31H-phthalocyanin-yl-.kappa.N29, .kappa.N30, .kappa.N31, .kappa.N32)oxy]propoxy]carbonyl]amino]hexanoato(3-)]-, sodium (1:5) [IRDye® 700DX carboxylate]
loss of signal intensity (stability) ([7]; 1×PBS, 1 μM): very little loss of signal intensity | pH at which a loss in signal intensity initially occurred ([7]; buffers of increasing pH): 5-6 pH | primary location of the dye in the kidney (longitudinal slice) ([8]; 4 nmole dose): proximal tubules of the renal cortex | signal in organs other than the liver and kidney ([8]; 24 hours after injection): little to no signal | retention in the liver ([8]; nude mice, 2 or 4 nmoles): no significant retention in the liver | route of clearance ([8]; nude mice, 2 or 4 nmoles, 5 minutes to 24 hours): renal | singlet oxygen sensor fluorescence with scavenger sodium azide added [5]: reduction in fluorescence | binding to the serum proteins including albumin ([6]; 1 h post-incubation): not detected | binding to the serum proteins including albumin [6, 13]: evident

unlabeled panitumumab: unlabeled antibody that binds EGFR
induction of cell death (morphology) [4, 11]: No measurable effect | induction of cell death (morphology) [4, 12]: No measurable effect
